Reference: publication PMC5839718 (The Journal of General Physiology, 2018)
“And” between values parts separate entries of the source, which are not always exact repeats. Equal entries are not always repeated. Where two headings read alike, the source gives them in different places.

Key:
[1] = test system: (α4)2(β2)3 nAChR from α4 and β2 (1:4); details: 10 µM ACh, ref Timmermann et al. (2012); cited from earlier work
[2] = biological target: α4β2 nAChR from concatenated β-6-α alone (Homo sapiens, UniProt P17787+P43681); experiment: two-electrode voltage-clamp, oocytes, β-6-α alone; assay type: cell-based
[3] = biological target: (α4)3(β2)2 nAChR from α4 and β2 (10:1) (Homo sapiens, UniProt P17787+P43681); experiment: two-electrode voltage-clamp, X. laevis oocytes, α4 and β2 cRNA 10:1; assay type: cell-based
Chain of (α4)3(β2)2 nAChR from α4 and β2 (10:1) (P43681 27-627): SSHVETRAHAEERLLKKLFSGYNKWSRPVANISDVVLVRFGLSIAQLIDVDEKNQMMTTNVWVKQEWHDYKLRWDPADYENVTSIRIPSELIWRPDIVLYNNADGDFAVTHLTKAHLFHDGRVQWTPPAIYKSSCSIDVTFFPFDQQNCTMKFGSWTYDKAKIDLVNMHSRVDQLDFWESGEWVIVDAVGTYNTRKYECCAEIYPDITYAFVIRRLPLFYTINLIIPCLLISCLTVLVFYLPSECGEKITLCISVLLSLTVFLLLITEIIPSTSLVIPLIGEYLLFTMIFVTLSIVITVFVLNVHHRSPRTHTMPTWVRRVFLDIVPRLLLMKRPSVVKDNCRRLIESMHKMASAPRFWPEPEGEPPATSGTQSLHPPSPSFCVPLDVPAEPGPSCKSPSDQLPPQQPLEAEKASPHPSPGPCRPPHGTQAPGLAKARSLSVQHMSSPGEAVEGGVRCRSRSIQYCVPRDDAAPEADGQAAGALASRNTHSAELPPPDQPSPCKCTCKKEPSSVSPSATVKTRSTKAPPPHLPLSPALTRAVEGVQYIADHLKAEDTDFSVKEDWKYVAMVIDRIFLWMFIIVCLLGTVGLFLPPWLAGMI
Chain of (α4)3(β2)2 nAChR from α4 and β2 (10:1) (P17787 26-502): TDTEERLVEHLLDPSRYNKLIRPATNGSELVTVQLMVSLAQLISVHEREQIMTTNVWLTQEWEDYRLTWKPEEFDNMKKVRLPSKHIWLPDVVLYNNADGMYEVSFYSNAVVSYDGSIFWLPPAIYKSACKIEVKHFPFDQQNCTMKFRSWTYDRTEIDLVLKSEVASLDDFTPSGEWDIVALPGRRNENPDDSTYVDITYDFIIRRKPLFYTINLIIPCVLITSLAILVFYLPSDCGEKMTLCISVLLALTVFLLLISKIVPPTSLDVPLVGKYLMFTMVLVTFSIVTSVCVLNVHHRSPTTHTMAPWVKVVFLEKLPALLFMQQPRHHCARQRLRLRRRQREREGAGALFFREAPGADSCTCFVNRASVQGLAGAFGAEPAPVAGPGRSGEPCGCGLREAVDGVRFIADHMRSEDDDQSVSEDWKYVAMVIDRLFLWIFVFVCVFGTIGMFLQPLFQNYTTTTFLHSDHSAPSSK

[4] = biological target: α4β2 nAChR from β-6a-α alone (Homo sapiens, UniProt P17787+P43681); experiment: two-electrode voltage-clamp, oocytes, β-6a-α alone; assay type: cell-based
Ls-AChBP = details: read-out: NS9283 Ki at Ls-AChBP; ref Olsen et al., 2014; cited from earlier work
[5] = biological target: α4β2 nAChR from β-3a-α alone (Homo sapiens, UniProt P17787+P43681); experiment: two-electrode voltage-clamp, oocytes, β-3a-α alone; assay type: cell-based
[6] = biological target: α4β2 nAChR from β-6-α and α4^VFL (1:25) (Homo sapiens, UniProt P17787+P43681, H142V/Q150F/T152L); experiment: two-electrode voltage-clamp, oocytes, β-6-α and α4^VFL 1:25; assay type: cell-based; details: β-6-α + α4^VFL 1:25; biphasic fit
[7] = biological target: α4β2 nAChR from β-6-α-9-β-6-α and α4 (1:1) (Homo sapiens, UniProt P17787+P43681); experiment: two-electrode voltage-clamp, oocytes, β-6-α-9-β-6-α and α4; assay type: cell-based; details: β-6-α-9-β-6-α + α4
[8] = biological target: α4β2 nAChR from β-6-α-9-β-6-α and α4^VFL (1:25) (Homo sapiens, UniProt P17787+P43681, H142V/Q150F/T152L); experiment: two-electrode voltage-clamp, oocytes, β-6-α-9-β-6-α and α4^VFL 1:25; assay type: cell-based; details: β-6-α-9-β-6-α + α4^VFL 1:25; biphasic fit
Chain of α4β2 nAChR from β-6-α-9-β-6-α and α4^VFL (1:25) (P17787 26-502): as above
Chain of α4β2 nAChR from β-6-α-9-β-6-α and α4^VFL (1:25) (P43681 27-627, stated change not applied): as the sequence (P43681 27-627) above
Chain of α4β2 nAChR from β-6-α-9-β-6-α and α4^VFL (1:25) (P17787 26-502): as the sequence (P17787 26-502) above
Chain of α4β2 nAChR from β-6-α-9-β-6-α and α4^VFL (1:25) (P43681 27-627, stated change not applied): as the sequence (P43681 27-627) above
Chain of α4β2 nAChR from β-6-α-9-β-6-α and α4^VFL (1:25) (P43681 34-627 H142V/Q150F/T152L limits assumed): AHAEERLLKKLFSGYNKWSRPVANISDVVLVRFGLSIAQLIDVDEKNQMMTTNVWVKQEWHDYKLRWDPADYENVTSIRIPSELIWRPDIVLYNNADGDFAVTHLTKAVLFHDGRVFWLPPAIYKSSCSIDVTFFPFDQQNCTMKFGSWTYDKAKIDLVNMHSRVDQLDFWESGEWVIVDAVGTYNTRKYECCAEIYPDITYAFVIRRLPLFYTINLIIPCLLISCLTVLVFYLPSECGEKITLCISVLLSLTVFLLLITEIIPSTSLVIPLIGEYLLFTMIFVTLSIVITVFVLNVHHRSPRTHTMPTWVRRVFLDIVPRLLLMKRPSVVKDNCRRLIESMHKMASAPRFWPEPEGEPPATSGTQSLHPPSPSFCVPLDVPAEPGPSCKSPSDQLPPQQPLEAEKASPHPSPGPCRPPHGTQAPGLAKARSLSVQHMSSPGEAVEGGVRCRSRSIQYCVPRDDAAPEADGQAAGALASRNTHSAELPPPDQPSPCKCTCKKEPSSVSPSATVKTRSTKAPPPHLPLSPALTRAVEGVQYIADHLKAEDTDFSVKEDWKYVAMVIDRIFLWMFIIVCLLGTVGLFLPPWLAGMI

[9] = biological target: α4β2 nAChR from β-0a-α and α4 (1:1) (Homo sapiens, UniProt P17787+P43681); experiment: two-electrode voltage-clamp, oocytes, β-0a-α and α4; assay type: cell-based; details: β-0a-α + α4; biphasic fit
[10] = biological target: α4β2 nAChR from β-3a-α and α4 (1:1) (Homo sapiens, UniProt P17787+P43681); experiment: two-electrode voltage-clamp, oocytes, β-3a-α and α4; assay type: cell-based; details: β-3a-α + α4; biphasic fit
[11] = biological target: α4β2 nAChR from β-6a-α and α4 (1:1) (Homo sapiens, UniProt P17787+P43681); experiment: two-electrode voltage-clamp, oocytes, β-6a-α and α4; assay type: cell-based; details: β-6a-α + α4; biphasic fit

N#Cc1cccc(-c2nc(-c3cccnc3)no2)c1 [NS9283, 3-(3-(pyridine-3-yl)-1,2,4-oxadiazol-5-yl)benzonitrile]
NS9283 effect on AChcontrol-evoked current amplitudes at […] or higher [1]: inhibition | EC50 [2]: 12.6 µM | Emax ([2]; read-out: NS9283 Emax): 900 ± 140% | NS9283 E31.6 µM ([2]; β-6-α alone, […] NS9283 + 10 µM ACh, % change from AChcontrol current): 640 ± 90% | EC50 [3]: 5.01 µM | Emax ([3]; read-out: NS9283 Emax): 860 ± 60% | EC50 [4]: 3.98 µM | Emax ([4]; read-out: NS9283 Emax): 51 ± 7% | Ki (Ls-AChBP): 67 µM

CC(=O)OCC[N+](C)(C)C [ACh, acetylcholine]
Emax ([2]; read-out: ACh Emax): 102 ± 2% | ACh Frac (first component fraction) ([2]; β-6-α alone, biphasic fit): 0.11 and 0.11 ± 0.02 | Emax ([5]; read-out: ACh Emax): 103 ± 1% | ACh Frac (first component fraction) ([5]; β-3a-α alone, biphasic fit): 0.64 ± 0.11 | ACh Frac (first component fraction) [6]: 0.39 ± 0.05 | Emax ([3]; read-out: ACh Emax): 102 ± 1% | ACh Frac (first component fraction) ([3]; α4+β2 10:1, biphasic fit): 0.11 ± 0.03 | mean AChmax-evoked currents [7]: 1–2 μA | ACh Frac (first component fraction) ([7]; biphasic fit): 0.035 ± 0.020 | Emax ([4]; read-out: ACh Emax): 103 ± 2% | ACh Frac (first component fraction) ([4]; β-6a-α alone, biphasic fit): 0.70 ± 0.12 | ACh Frac (first component fraction) [8]: 0.40 ± 0.12 | ACh Frac (first component fraction) [9]: 0.053 ± 0.028 | ACh Frac (first component fraction) [10]: 0.11 ± 0.02 | ACh Frac (first component fraction) [11]: 0.059 ± 0.018
